Assay results taken from patent US12357603B2, “Acyl sulfonamides for treating cancer” (Bayer Aktiengesellschaft, priority 2019, dated 2025).
pIC50: −log10 of the molar value. Like-named read-outs stand apart in the source and are kept apart here.

Key:
[1] = molecular target: Recombinant human GST-tagged Kat6b protein (431-end); experiment: Kat6b activity assay (TR-FRET, acetylation of biotinylated Histone-H4-derived peptide); type: biochemical; details: 30 mins at 22° C., read-out: KAT6B activity assay IC50 [mol/l] (arithmetic mean)
Description: Kat6b inhibitory activities of the compounds described in the present invention were quantified using a Fluorescence Resonance Energy Transfer (TR-FRET) assay which measures acetylation of a synthetic, biotinylated Histone-H4-derived peptide by the enzyme.
In this case 50 nl DMSO were used instead of compounds. […] IC50 values were determined by regression analysis based on a 4 parameter equation (minimum, maximum, ICM, Hill; Y=Max+(Min−Max)/(1+(X/ICso) Hill) using the Screener Software (Genedata).

[2] = tested on: ESR1 transcription (luciferase signal in MVLN cells); experiment: Repression of ESR1 transcription, luciferase reporter in MVLN cells; type: cell-based; details: inhibition of luciferase signal in MVLN cells, arithmetic mean
Method in brief: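 Luminescence from an ER-driven Vitellogenin A2 element–luciferase reporter was measured after 24 h of treatment of MVLN cells, in duplicate wells. Alamar Blue (2 h, 530/590 nm) served as a cell-density control.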

MDA-MB-436 cells = experiment: Proliferation assay MDA-MB-436, negative control cell line (Alamar Blue, 144 h); type: cell-based; details: arithmetic mean
Method in brief: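 Viability read as Alamar Blue fluorescence (590 nm, 2 h) after 144 h compound exposure at 37 °C, 5% CO2. Cells seeded at 3000 per well in 2.5% FBS DMEM/Ham's F12, dosed a day later over 2.0×10E-9–2.0×10E-5 M in 9 steps with 0.2% DMSO, in triplicate.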

[3] = molecular target: Recombinant human His-tagged Kat6a protein (amino acids 194-810) (Homo sapiens (Human), UniProt Q92794); experiment: Kat6a activity assay (TR-FRET, acetylation of biotinylated Histone-H4-derived peptide); type: biochemical; details: 60 mins at 22° C., read-out: KAT6A-DPF/HAT domain IC50 [mol/l] (arithmetic mean)
Method in brief: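 TR-FRET read-out of H4 K8 acetylation, using anti-acetyl-K8 antibody and streptavidin acceptor, after anacardic acid stop; IC50 from four-parameter regression normalized to DMSO. Reaction: recombinant human Kat6a aa 194-810 (insect-cell derived), 220 nM H4 1-24 peptide, 600 nM acetyl-CoA, pH 8, 22 °C, 60 min, compounds 0.01-20 μM.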

ZR-75-1 cells = experiment: Proliferation assay ZR-75-1 (Alamar Blue, 144 h); type: cell-based; details: arithmetic mean, read-out: ZR75-1 proliferation assay, EC50 [M] (arithmetic mean)
Method in brief: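 Alamar Blue fluorescence (590 nm, 2 h reagent step) measured viability after 144 h compound exposure at 37 °C, 5% CO2. Compounds spanned 2.0×10E-5 to 2.0×10E-9 M in 9 dilutions at 0.2% DMSO, in triplicate, added 24 h after plating 3000 cells/well in RPMI 1640 plus 2.5% FBS.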

[4] = Homo sapiens, MDA-MB-436, 144 h

Sequence of Recombinant human His-tagged Kat6a protein (amino acids 194-810) (Q92794 194-810): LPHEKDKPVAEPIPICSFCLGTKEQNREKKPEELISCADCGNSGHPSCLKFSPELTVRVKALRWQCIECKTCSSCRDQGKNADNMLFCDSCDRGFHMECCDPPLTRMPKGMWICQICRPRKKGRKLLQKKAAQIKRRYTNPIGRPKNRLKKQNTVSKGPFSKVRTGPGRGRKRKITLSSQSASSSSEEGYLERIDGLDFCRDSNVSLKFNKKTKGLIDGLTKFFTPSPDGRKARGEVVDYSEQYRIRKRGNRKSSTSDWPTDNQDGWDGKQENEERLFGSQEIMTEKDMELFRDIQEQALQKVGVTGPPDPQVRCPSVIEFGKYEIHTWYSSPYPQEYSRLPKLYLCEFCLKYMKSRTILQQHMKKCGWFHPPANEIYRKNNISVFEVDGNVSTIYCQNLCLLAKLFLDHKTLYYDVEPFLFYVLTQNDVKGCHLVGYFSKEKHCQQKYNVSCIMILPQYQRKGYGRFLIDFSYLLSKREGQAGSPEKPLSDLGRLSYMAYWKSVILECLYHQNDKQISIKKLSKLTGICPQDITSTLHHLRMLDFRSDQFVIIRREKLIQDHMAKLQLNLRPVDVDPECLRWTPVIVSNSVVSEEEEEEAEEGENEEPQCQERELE

pIC50 [1]	IC50 ([2]; Homo sapiens, MVLN) [nM]	EC50 (MDA-MB-436 cells; [4]) [µM]	pIC50 [3]	IC50 [2] [nM]	EC50 (MDA-MB-436 cells) [µM]	SMILES	EC50 (ZR-75-1 cells; Homo sapiens, ZR-75-1, 144 h) [M]	EC50 (ZR-75-1 cells) [M]
7.30	126	> 20	7.18			CN(C)c1ccc2cc(C(=O)NS(=O)(=O)c3ccccc3-c3cccc(Cl)c3)oc2c1 [Example 16, N-(3′-Chloro[1,1′-biphenyl]-2-sulfonyl)-6-(dimethylamino)-1-benzofuran-2-carboxamide]	1.55e-07	
7.19	148	> 20	7.14			Cc1ccccc1-c1ccccc1S(=O)(=O)NC(=O)c1cc2ccc(N(C)C)cc2o1 [Example 17, 6-(Dimethylamino)-N-(2′-methyl[1,1′-biphenyl]-2-sulfonyl)-1-benzofuran-2-carboxamide]	3.87e-08	
7.05	343	> 20	6.98			CN(C)c1ccc2cc(C(=O)N[S@SP1](=O)(=O)c3cccc4ccccc34)oc2c1 [Example 20, 6-(Dimethylamino)-N-(naphthalene-1-sulfonyl)-1-benzofuran-2-carboxamide]	2.5e-07	
7.57			7.63	48.5	15.3	Cc1ccc2cccc(S(=O)(=O)NC(=O)c3cc4ccc(N(C)C)cc4o3)c2n1 [Example 21, 6-(Dimethylamino)-N-(2-methylquinoline-8-sulfonyl)-1-benzofuran-2-carboxamide]		4.21e-08
6.70	214	> 20	6.66			CN(C)c1ccc2cc(C(=O)NS(=O)(=O)c3ccccc3Cl)oc2c1 [Example 22, N-(2-Chlorobenzene-1-sulfonyl)-6-(dimethylamino)-1-benzofuran-2-carboxamide]	2.02e-07	
7.31	181	> 20	7.51			Cc1ccc(S(=O)(=O)NC(=O)c2cc3ccc(N(C)C)cc3o2)c(-c2ccccc2)c1 [Example 24, 6-(Dimethylamino)-N-(5-methyl[1,1′-biphenyl]-2-sulfonyl)-1-benzofuran-2-carboxamide]	1.33e-07	
7.30	139	18	7.51			CCOc1cccc(-c2cccc(Cl)c2)c1S(=O)(=O)NC(=O)c1cc2ccc(N(C)C)cc2o1 [Example 25, N-(3′-Chloro-3-ethoxy[1,1′-biphenyl]-2-sulfonyl)-6-(dimethylamino)-1-benzofuran-2-carboxamide]	1.5e-07	
6.11	899	> 20	6.39			Cc1ccc(S(=O)(=O)NC(=O)c2cc3ccc(N(C)C)cc3o2)cc1 [Example 26, 6-(Dimethylamino)-N-(4-methylbenzene-1-sulfonyl)-1-benzofuran-2-carboxamide]	3.89e-07	
5.57	> 20000	> 20	5.26			CN(C)c1ccc2cc(C(=O)NS(=O)(=O)C3CCOCC3)oc2c1 [Example 28, 6-(Dimethylamino)-N-(oxane-4-sulfonyl)-1-benzofuran-2-carboxamide]	4.73e-06	
5.23	> 20000	> 20	5.20			CN(C)c1ccc2cc(C(=O)NS(=O)(=O)c3cc(C#N)ccn3)oc2c1 [Example 29, N-(4-Cyanopyridine-2-sulfonyl)-6-(dimethylamino)-1-benzofuran-2-carboxamide]	1.88e-05	
6.18	14900	> 20	6.34			Cc1cc(N(C)C)cc2oc(C(=O)NS(=O)(=O)c3ccccc3-c3ccccc3)cc12 [Example 35, N-([1,1′-biphenyl]-2-sulfonyl)-6-(dimethylamino)-4-methyl-1-benzofuran-2-carboxamide]	6.03e-06	
6.77	4030	> 20	6.64			CN(C)c1ccc2cc(C(=O)NS(=O)(=O)c3ccccc3C(=O)O)oc2c1 [Example 36, 2-{[6-(Dimethylamino)-1-benzofuran-2-carbonyl]sulfamoyl}benzoic acid]	1.04e-05	
5.72	4990	> 20	6.01			CCN(CC)c1ccc2cc(C(=O)NS(=O)(=O)c3ccccc3-c3ccccc3)oc2c1 [Example 38, N-([1,1′-Biphenyl]-2-sulfonyl)-6-(diethylamino)-1-benzofuran-2-carboxamide]	1.45e-05	
5.85	> 20000	> 20	5.94			CN(CC1CC1)c1ccc2cc(C(=O)NS(=O)(=O)c3ccccc3-c3ccccc3)oc2c1 [Example 40, N-([1,1′-Biphenyl]-2-sulfonyl)-6-[(cyclopropylmethyl)(methyl)amino]-1-benzofuran-2-carboxamide]	> 2e-05	
5.59	14900	18.5	5.64			CCCCN(CCCC)c1ccc2cc(C(=O)NS(=O)(=O)c3ccccc3-c3ccccc3)oc2c1 [Example 41, N-([1,1′-Biphenyl]-2-sulfonyl)-6-(dibutylamino)-1-benzofuran-2-carboxamide]	8.3e-06	
5.44	> 20000	> 20	5.97			Nc1ccc2cc(C(=O)NS(=O)(=O)c3ccccc3-c3ccccc3)oc2c1 [Example 42, 6-Amino-N-([1,1′-biphenyl]-2-sulfonyl)-1-benzofuran-2-carboxamide]	> 2e-05	
4.99	> 20000	> 20	5.29			CC(=O)Nc1ccc2cc(C(=O)NS(=O)(=O)c3ccccc3-c3ccccc3)oc2c1 [Example 43, 6-Acetamido-N-([1,1′-biphenyl]-2-sulfonyl)-1-benzofuran-2-carboxamide]	> 2e-05	
5.83	6450	> 20	5.44			O=C(NS(=O)(=O)c1ccccc1-c1ccccc1)c1cc2ccc(N3CCCC3)cc2o1 [Example 45, N-([1,1′-Biphenyl]-2-sulfonyl)-6-(pyrrolidin-1-yl)-1-benzofuran-2-carboxamide]	1.19e-05	
4.80	> 20000	> 20	5.11			O=C(NS(=O)(=O)c1ccccc1-c1ccccc1)c1cc2ccc(N3CCCCC3)cc2o1 [Example 47, N-([1,1′-Biphenyl]-2-sulfonyl)-6-(piperidin-1-yl)-1-benzofuran-2-carboxamide]	> 2e-05	
6.28	2470	> 20	6.51			CN(C)c1ccc2cc(C(=O)NS(=O)(=O)c3ccccc3-c3cccc(Cl)c3)sc2c1 [Example 49, N-(3′-Chloro[1,1′-biphenyl]-2-sulfonyl)-6-(dimethylamino)-1-benzothiophene-2-carboxamide]	5.17e-06	
5.01	> 20000	> 20	4.79			CCS(=O)(=O)NC(=O)c1cc2ccc(N(C)C)cc2o1 [Example 61, 6-(Dimethylamino)-N-(ethanesulfonyl)-1-benzofuran-2-carboxamide]	1.77e-05	
< 4.70	> 20000	> 20	4.78			CN(C)c1ccc2cc(C(=O)NS(C)(=O)=O)oc2c1 [Example 63, 6-(Dimethylamino)-N-(methanesulfonyl)-1-benzofuran-2-carboxamide]	> 2e-05	
7.46	20.4	> 20	7.55			CN(C)c1ccc2cc(C(=O)NS(=O)(=O)c3ccccc3OC3CC3)oc2c1 [Example 65, N-[2-(Cyclopropyloxy)benzene-1-sulfonyl]-6-(dimethylamino)-1-benzofuran-2-carboxamide]	4.44e-08	
7.23			7.31	31	> 20	CC(C)Oc1ccccc1S(=O)(=O)NC(=O)c1cc2ccc(N(C)C)cc2o1 [Example 66, 6-(Dimethylamino)-N-{2-[(propan-2-yl)oxy]benzene-1-sulfonyl}-1-benzofuran-2-carboxamide]		5.47e-08
